Measurements from US20240092779A1, “USP1 INHIBITORS AND USES THEREOF” (Zentaur Therapeutics USA Inc., priority 2022, published 2024).

Columns and labels:
[1] = Liver microsomal stability (HLM); type: in vitro ADME; details: human, liver microsomes, human liver microsomes 0.5 mg/mL, 1 μM compound, NADPH
[2] = tested on: MDA-MB-436 subcutaneous human breast cancer model; test: In vivo efficacy in MDA-MB-436 subcutaneous xenograft; details: NOD SCID mice, 28 days
Method: Anti-tumor efficacy of USP1 inhibitors were evaluated in mice using the MDA-MB-436 subcutaneous human breast cancer model that harbors the loss-of-function BRCA1 mutation. 6-8 weeks old female NOD SCID mice from Beijing Anikeeper Biotech Co., Ltd. were inoculated subcutaneously with 1×10^7 MDA-MB-436 tumor cells. When tumors reached a size of approximately 130 mm 3 mice were randomized into group of 5 or 9 and dosed via oral gavage once or twice daily for 28 days with either vehicle (twice daily, 9 animals), one dose of USP1 inhibitor 1-107 at 150 mg/kg (twice daily, 5 animals), three doses of USP1 inhibitor I-111 at […] (once daily, 9 animals per group), or one dose of USP1 inhibitor 1-124 at 150 mg/kg (twice daily, 5 animals). Body weight and tumor volume were measured twice per week. Tumor volume (TV) was calculated as mean and standard deviation of the mean for each treatment group. The percentage tumor growth inhibition (TGI) was calculated using the formula: TGI=(RTVvehicle−RTVtreatment)*100)/(RTVvehicle −1), where RTV is the mean relative volumes (RTV=TVDay terminal[…]) of the tumors in the treatment and the vehicle groups, respectively, on a given day from Day 0-Day 28 where Day 0 is the first day of treatment.
All treatment groups were well-tolerated, with various dose levels and dosing frequency for the duration of the treatment period from day 0 to day 28 in the tumor bearing mice, as shown in FIG. 2.

[3] = Solubility in FaSSIF (Fasted State Simulated Intestinal Fluid); type: physicochemical; details: kinetic from dmso stock, FaSSIF pH 6.5, 25° C.
Method: Solubility in FaSSIF (Fasted State Simulated Intestinal Fluid)
Certain Compounds of the Disclosure were assessed for the apparent solubility in FaSSIF.
0.420 g of NaOH, 3.438 g of NaH2PO4 and 6.186 g of NaCl were dissolved into about 900 mL ultrapure water. The solution was adjusted to the pH of 6.5 with 1N NaOH or 1N HCl. The solution was then diluted with ultrapure water to 1000 mL at room temperature. The resulting solution is used as buffer solution.
2.240 g of FaSSIF Powder was added to about 500 mL of above-mentioned buffer solution. The solution was stirred until powder was completely dissolved. Then the solution was diluted with buffer A to 1000 mL at room temperature. This solution is FaSSIF to be used in the following experiment.
15 μL of stock solution (10 mM) of each sample was placed into their proper 96-well rack. 485 μL of FaSSIF was added into each vial of the cap-less solubility sample plate. One stir stick was added to each vial and the vial was sealed using a molded PTFE/Silicone plug. The solubility sample plate was transferred to the Eppendorf Thermomixer Comfort plate shaker and shaked at 25° C. at 1100 RPM for 2 hours. After completion of the 2 hours, the stir sticks using a big magnet were removed. The samples from the solubility sample plate were transferred into the filter plate. Using the vacuum manifold, all the samples are filtered. Aliquot of 5 μL was taken from filtrate followed by addition of 5 μL DMSO and 490 μL of a mixture of H2O and acetonitrile containing internal standard (1:1).
3 μM Standards solution (STD) was prepared from the 10 mM DMSO STD plate.as following: transferring 6 μL into the remaining empty plate, adding 194 μL of DMSO to that plate to have a STD concentration of 300 μM. From the 300 μM DMSO STD plate, 5 μL solution was transferred into the remaining empty plate. Addition of 5 μL PBS and 490 μL of a mixture of H2O and acetonitrile containing internal standard (1:1) to that plate furnished a final STD concentration of 3 μM STD solution.
The samples are analyzed and quantified against the standard of known concentration using LC/MS/MS, calculating the solubility of the test compound as following (DF means the dilution factor):
[Sample solubility in FsSSIF (04)]=Area Ratio sample×DF sample×[STD]/Area Ratio STD

microsomal CLint at 1 μM [1]: < 10 µL/min/mg
solubility at 2 h [3]: ≥ 100 µM
Structure (SMILES): COc1ncnc(C2CC2)c1-c1ncc2cc(C3CCN(C)CC3)c(=O)n(Cc3ccc(-c4nc(C(F)(F)F)cn4C4CC4)cc3)c2n1 [Compound I-111]
TGI (tumor growth inhibition) ([2]; 10 mg/kg QD oral gavage): ~55%
TGI (tumor growth inhibition) ([2]; 30 mg/kg QD oral gavage): ~80%
TGI (tumor growth inhibition) ([2]; 60 mg/kg QD oral gavage): > 100%
